In patent publication US9586956B2, “Isoquinoline and naphthyridine derivatives” (Genentech, Inc., priority 2012, dated 2017) one finds IC50 data, which are given here for 38 compounds.

T1 sequence (O95819 25-289 limits assumed): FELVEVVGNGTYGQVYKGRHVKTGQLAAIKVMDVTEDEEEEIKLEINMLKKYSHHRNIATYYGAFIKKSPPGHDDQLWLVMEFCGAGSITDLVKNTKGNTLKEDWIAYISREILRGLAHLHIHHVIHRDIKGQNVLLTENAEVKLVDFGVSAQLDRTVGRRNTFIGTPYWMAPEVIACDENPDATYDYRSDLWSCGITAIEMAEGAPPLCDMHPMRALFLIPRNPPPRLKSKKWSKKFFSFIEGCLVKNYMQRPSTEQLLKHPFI

The assay has as its target T1, purified human MAP4K4 kinase domain (Homo sapiens, UniProt O95819).
T1 construct: purified human MAP4K4 kinase domain
Nature of the assay: MAP4K4 Inhibition Assay Protocol No. 1 (Caliper LabChip, moesin-derived peptide phosphorylation). The class given is biochemical. Conditions: Assay 1; 1 nM enzyme, 10 uM ATP, 45 min. The method, then:
The kinase activity of purified human MAP4K4 kinase domain was measured by monitoring the phosphorylation of a peptide substrate derived from moesin protein (Leu-Gly-Arg-Asp-Lys-Tyr-Lys-Thr-Leu-Arg-Gln-Ile-Arg-Gln) fluorescently labeled on the N-terminus with 5-carboxyfluorescein using the Caliper LabChip technology (Caliper Life Sciences, Hopkinton, Mass.). To determine inhibition constants (IC50), compounds were serially diluted in DMSO and added to 10 uL kinase reactions containing 1 nM purified MAP4K4 enzyme, 1 uM peptide substrate, 10 uM ATP, 10 mM MgCl2, 1 mM EGTA, 50 mM Hepes pH 7.2, 1 mM DTT, 0.01% Triton X-100, and 2% DMSO. Reactions were incubated at room temperature in Perkin Elmer Proxiplates for 45 minutes and stopped by the addition of 10 uL of an EDTA-containing solution (50 mM Hepes pH 7.2, 40 mM EDTA, 0.02% Triton X-100). The fraction of phosphorylated peptide was determined as a fraction of total peptide substrate using the Caliper Lab Chip 3000 according to the manufacturer's instructions. IC50 values were determined using the four-parameter non-linear fit model.
On to `NC(=O)C1CCN(C(=O)c2cnc(N)c3cc(-c4cccc(F)c4)ccc23)CC1` [Example 50, 1-[1-amino-7-(3-fluorophenyl)isoquinoline-4-carbonyl] piperidine-4-carboxamide], for which it took 1.5 µM to reach half-maximal inhibition (IC50).
Turning to `Nc1ncc(C(=O)NCC2CCOCC2)c2ccc(-c3cccc(F)c3)cc12` [Example 56, 1-amino-7-(3-fluorophenyl)-N-(tetrahydropyran-4-ylmethyl)isoquinoline-4-carboxamide], the IC50 (in general, the concentration needed to halve the response being measured) was determined as 0.249 µM.
The same measure for `Nc1ncc(C(=O)NCCN2CCOCC2)c2ccc(-c3cccc(F)c3)cc12` [Example 45, 1-amino-7-(3-fluorophenyl)-N-(2-morpholinoethyl) isoquinoline-4-carboxamide]: 0.0841 µM.
`NC(=O)C1CCCN(C(=O)c2cnc(N)c3cc(-c4cccc(F)c4)ccc23)C1` (centres unmarked) [Example 51, 1-[1-amino-7-(3-fluorophenyl)isoquinoline-4-carbonyl] piperidine-3-carboxamide] had an IC50 of 2 µM.
The same measure for `CNC(=O)c1cnc(N)c2cc(-c3cccc(F)c3)ccc12` [Example 74, 1-amino-7-(3-fluorophenyl)-N-methyl-isoquinoline-4-carboxamide]: 0.0395 µM; for `Nc1ncc(C(=O)NCc2ccccn2)c2ccc(-c3cccc(F)c3)cc12` [Example 96, 1-amino-7-(3-fluorophenyl)-N-(2-pyridylmethyl) isoquinoline-4-carboxamide]: 0.179 µM.
The figure for `Nc1ncc(C(=O)NCCS(=O)(=O)N2CCCC2)c2ccc(-c3cccc(F)c3)cc12` [Example 53, 1-amino-7-(3-fluorophenyl)-N-(2-pyrrolidin-1-ylsulfonylethyl) isoquinoline-4-carboxamide] is 0.388 µM; for `COCc1ccc(NC(=O)c2cnc(N)c3cc(-c4cccc(F)c4)ccc23)cc1` [Example 54, 1-amino-7-(3-fluorophenyl)-N-[4-(methoxymethyl)phenyl]isoquinoline-4-carboxamide] it is 0.0175 µM; for `Nc1ncc(C(=O)NC2COC2)c2ccc(-c3cccc(F)c3)cc12` [Example 115, 1-amino-7-(3-fluorophenyl)-N-(oxetan-3-yl)isoquinoline-4-carboxamide] it is 0.0454 µM.
Regarding `CC(=O)N1CCC(NC(=O)c2cnc(N)c3cc(-c4cccc(F)c4)ccc23)CC1` [Example 57, N-(1-acetyl-4-piperidyl)-1-amino-7-(3-fluorophenyl) isoquinoline-4-carboxamide], half-maximal inhibition (IC50) required 0.102 µM.
The same measure for `Nc1ncc(C(=O)N2CCN(CCO)CC2)c2ccc(-c3cccc(F)c3)cc12` [Example 65, [1-amino-7-(3-fluorophenyl)-4-isoquinolyl]-[4-(2-hydroxyethyl)piperazin-1-yl]methanone]: 1.7 µM; for `CCC(=O)N1CC(NC(=O)c2cnc(N)c3cc(-c4cccc(F)c4)ccc23)C1` [Example 125, 1-amino-7-(3-fluorophenyl)-N-(1-propanoylazetidin-3-yl)isoquinoline-4-carboxamide]: 0.0503 µM; for `CC(C)CNC(=O)c1cnc(N)c2cc(-c3cccc(F)c3)ccc12` [Example 92, 1-amino-7-(3-fluorophenyl)-N-isobutyl-isoquinoline-4-carboxamide]: 0.0335 µM.
The figure for `Nc1ncc(C(=O)NC2CC2)c2ccc(-c3cccc(F)c3)cc12` [Example 108, 1-amino-N-cyclopropyl-7-(3-fluorophenyl) isoquinoline-4-carboxamide] is 0.0156 µM; for `Nc1ncc(C(=O)NCCN2CCCC2=O)c2ccc(-c3cccc(F)c3)cc12` [Example 77, 1-amino-7-(3-fluorophenyl)-N-[2-(2-oxopyrrolidin-1-yl)ethyl]isoquinoline-4-carboxamide] it is 0.507 µM; for `CCNC(=O)c1cnc(N)c2cc(-c3cccc(F)c3)ccc12` [Example 99, 1-amino-N-ethyl-7-(3-fluorophenyl)isoquinoline-4-carboxamide] it is 0.0257 µM.
The figure for `Nc1ncc(C(=O)N2CCC(CO)CC2)c2ccc(-c3cccc(F)c3)cc12` [Example 55, [1-amino-7-(3-fluorophenyl)-4-isoquinolyl]-[4-(hydroxy-methyl)-1-piperidyl] methanone] is 0.622 µM; for `CC(C)(N)CNC(=O)c1cnc(N)c2cc(-c3cccc(F)c3)ccc12` [Example 78, 1-amino-N-(2-amino-2-methyl-propyl)-7-(3-fluorophenyl) isoquinoline-4-carboxamide] it is 2.4 µM; for `CC(C)NC(=O)c1cnc(N)c2cc(-c3cccc(F)c3)ccc12` [Example 102, 1-amino-7-(3-fluorophenyl)-N-isopropyl-isoquinoline-4-carboxamide] it is 0.135 µM.
On to `Nc1ncc(C(=O)NCCCN2CCOCC2)c2ccc(-c3cccc(F)c3)cc12` [Example 64, 1-amino-7-(3-fluorophenyl)-N-(3-morpholinopropyl) isoquinoline-4-carboxamide], for which the IC50 is 0.34 µM.
The same measure for `Nc1ncc(-c2nc3ccccc3[nH]2)c2ccc(-c3cccc(F)c3)cc12` [Example 2, 4-(1H-benzimidazol-2-yl)-7-(3-fluorophenyl)isoquinolin-1-amine]: 0.299 µM; for `C[C@@H](NC(=O)c1cnc(N)c2cc(-c3cccc(F)c3)ccc12)C(N)=O` [Example 84, 1-amino-N-[(1R)-2-amino-1-methyl-2-oxo-ethyl]-7-(3-fluorophenyl) isoquinoline-4-carboxamide]: 0.557 µM.
`Nc1ncc(C(=O)NC2CNC2)c2ccc(-c3cccc(F)c3)cc12` [Example 124, 1-amino-N-(azetidin-3-yl)-7-(3-fluorophenyl) isoquinoline-4-carboxamide] showed an IC50 of 0.4 µM.
The figure for `Nc1ncc(C(=O)NC2CCOC2)c2ccc(-c3cccc(F)c3)cc12` (centres unmarked) [Example 112, 1-amino-7-(3-fluorophenyl)-N-tetrahydrofuran-3-yl-isoquinoline-4-carboxamide] is 0.0731 µM; for `Nc1ncc(C(=O)Nc2ccc(CO)cc2)c2ccc(-c3cccc(F)c3)cc12` [Example 63, 1-amino-7-(3-fluorophenyl)-N-[4-(hydroxymethyl)phenyl]isoquinoline-4-carboxamide] it is 0.0127 µM.
The same measure for `Nc1ncc(C(=O)Nc2cccnc2)c2ccc(-c3cccc(F)c3)cc12` [Example 107, 1-amino-7-(3-fluorophenyl)-N-(3-pyridyl)isoquinoline-4-carboxamide]: 0.0124 µM; for `Nc1ncc(C(=O)NCCN2CCS(=O)(=O)CC2)c2ccc(-c3cccc(F)c3)cc12` [Example 76, 1-amino-N-[2-(1,1-dioxo-1,4-thiazinan-4-yl)ethyl]-7-(3-fluorophenyl) isoquinoline-4-carboxamide]: 0.245 µM.
The same measure for `Nc1ncc(C(=O)Nc2ccncc2)c2ccc(-c3cccc(F)c3)cc12` [Example 106, 1-amino-7-(3-fluorophenyl)-N-(4-pyridyl)isoquinoline-4-carboxamide]: 0.0224 µM; for `CN(C)CCNC(=O)c1cnc(N)c2cc(-c3cccc(F)c3)ccc12` [Example 46, 1-amino-N-[2-(dimethylamino)ethyl]-7-(3-fluorophenyl) isoquinoline-4-carboxamide]: 2.4 µM; for `Nc1ncc(C(=O)NCCC(=O)N2CCOCC2)c2ccc(-c3cccc(F)c3)cc12` [Example 110, 1-amino-7-(3-fluorophenyl)-N-(3-morpholino-3-oxo-propyl)isoquinoline-4-carboxamide]: 0.403 µM.
The compound `Nc1ncc(C(=O)NCCCO)c2ccc(-c3cccc(F)c3)cc12` [Example 100, 1-amino-7-(3-fluorophenyl)-N-(3-hydroxypropyl) isoquinoline-4-carboxamide] displayed an IC50 of 0.0395 µM.
The same measure for `NCc1cnc(N)c2cc(-c3cccc(F)c3)ccc12` [Example 5, 4-(aminomethyl)-7-(3-fluorophenyl)isoquinolin-1-amine]: 1.2 µM.
Take `Nc1ncc(C(=O)NCCN2CCCC2)c2ccc(-c3cccc(F)c3)cc12` [Example 47, 1-amino-7-(3-fluorophenyl)-N-(2-pyrrolidin-1-ylethyl)isoquinoline-4-carboxamide]: the IC50 stood at 1.6 µM.
The same measure for `CN1CCC(NC(=O)c2cnc(N)c3cc(-c4cccc(F)c4)ccc23)CC1` [Example 67, 1-amino-7-(3-fluorophenyl)-N-(1-methyl-4-piperidyl) isoquinoline-4-carboxamide]: 0.651 µM; for `CN(C)C(=O)c1nc(CNC(=O)c2cnc(N)c3cc(-c4cccc(F)c4)ccc23)no1` [Example 1, 3-[[[1-amino-7-(3-fluorophenyl)isoquinoline-4-carbonyl]amino]methyl]-N,N-dimethyl-1,2,4-oxadiazole-5-carboxamide]: 0.122 µM.
The same measure for `Nc1ncc(C(=O)NC2CC(O)C2)c2ccc(-c3cccc(F)c3)cc12` (centres unmarked) [Example 3, 1-amino-7-(3-fluorophenyl)-N-(3-hydroxycyclobutyl)isoquinoline-4-carboxamide]: 0.0388 µM; for `Nc1ncc(C(=O)NCC2CC2)c2ccc(-c3cccc(F)c3)cc12` [Example 101, 1-amino-N-(cyclopropylmethyl)-7-(3-fluorophenyl) isoquinoline-4-carboxamide]: 0.0399 µM.
As to `Nc1ncc(C(=O)NCCN2CCNC2=O)c2ccc(-c3cccc(F)c3)cc12` [Example 82, 1-amino-7-(3-fluorophenyl)-N-[2-(2-oxoimidazolidin-1-yl)ethyl]isoquinoline-4-carboxamide], the IC50 stood at 0.148 µM.
